According to PubChem BioAssay (NCI):
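Five concentrations, 48 hours, 96-well plates. GI50 = concentration required for 50% inhibition of growth. TGI: total growth inhibition.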

Experiments:
Assay in all cases: DTP human tumour cell line panel, 48 h
[1] = system: SR leukemia
[2] = system: HCT-15 colon
[3] = system: UACC-62 melanoma
[4] = system: A498 renal
[5] = system: SF-268 CNS
[6] = system: UACC-257 melanoma
[7] = system: MDA-N
[8] = system: OVCAR-3 ovarian
[9] = system: M14 melanoma
[10] = system: MDA-MB-231 breast

`N/N=C(\C(=O)Nc1c(Cl)cc([N+](=O)[O-])cc1Cl)C(c1cnc2ccc([N+](=O)[O-])cc2n1)[N+](=O)[O-]` (configuration not stated) was tested, and the TGI [1] was > 100 µM, the TGI [2] was > 100 µM and the TGI [3] was > 100 µM. The TGI [4] was > 100 µM, the TGI [5] was > 100 µM and the TGI [6] was > 100 µM.
For `Cc1ccc2c(=O)cc(-c3csc4ccccc34)[nH]c2n1`, the TGI [7] was < 0.01 µM, the TGI [8] was < 0.01 µM and the TGI [1] was 0.142 µM. The TGI [2] was 13.4 µM, the TGI [9] was 0.031 µM and the TGI [3] was > 76.8 µM. For the same compound, the TGI [4] was 1.1 µM, the TGI [10] was 0.0836 µM and the TGI [5] was > 53.2 µM.
For `CCC1C(=O)C[C@H]2[C@@H]3C(O)CC4=CC(=O)CC[C@]4(C)[C@H]3CC[C@]12C` (some centres not stated), the TGI [8] was > 50 µM, the TGI [2] was > 50 µM and the TGI [9] was > 50 µM. The TGI [3] was > 50 µM, the TGI [4] was > 50 µM and the TGI [10] was > 50 µM. The TGI [5] was > 50 µM and the TGI [6] was > 50 µM.
With `CC(=O)C1CC(C)=CCC12C(=O)Nc1ccccc12` (configuration not stated) the TGI [8] was > 100 µM, the TGI [2] was > 100 µM and the TGI [9] was > 100 µM. The TGI [3] was > 100 µM, the TGI [4] was > 100 µM and the TGI [5] was > 100 µM.
For `CCNC(=O)Nc1cccc(C)n1`, the TGI [7] was > 100 µM, the TGI [8] was > 100 µM and the TGI [1] was > 100 µM. For the same compound, the TGI [9] was > 100 µM, the TGI [3] was > 100 µM and the TGI [4] was > 100 µM. For the same compound, the TGI [10] was > 100 µM, the TGI [5] was > 100 µM and the TGI [6] was > 100 µM.
For `CC(=O)C(C(C)=O)=C1CCCC(O)O1` (configuration not stated), the TGI [1] was > 100 µM, the TGI [2] was > 100 µM and the TGI [9] was > 100 µM. The TGI [3] was > 100 µM, the TGI [4] was > 100 µM and the TGI [10] was > 100 µM. For the same compound, the TGI [5] was > 100 µM and the TGI [6] was > 100 µM.
For `Cc1ccc(C)n2c1nc1ccc3ccccc3c12`, the TGI [7] was > 100 µM, the TGI [8] was > 100 µM and the TGI [1] was > 100 µM. The TGI [2] was > 100 µM, the TGI [9] was > 100 µM and the TGI [3] was > 100 µM. For the same compound, the TGI [5] was > 100 µM and the TGI [6] was > 100 µM.
For `COC(=O)/C=C/c1ccccc1N=[S@](C)(=O)c1ccc(C)cc1`, the TGI [8] was 55.8 µM, the TGI [1] was 26.7 µM and the TGI [2] was > 100 µM. The TGI [9] was 55.1 µM, the TGI [3] was > 100 µM and the TGI [4] was 43.8 µM. For the same compound, the TGI [10] was 94.4 µM, the TGI [5] was > 100 µM and the TGI [6] was 56.8 µM.
`Cc1ccc([N+](=O)[O-])cc1S(=O)(=O)Nc1ccc(C2=NN(c3ccc([N+](=O)[O-])cc3[N+](=O)[O-])C(c3ccccc3)C2)cc1` (configuration not stated) showed a TGI [7] of 35.5 µM, a TGI [8] of 28.4 µM and a TGI [1] of 90 µM. It also gave a TGI [2] of 36.8 µM, a TGI [9] of 51.1 µM and a TGI [10] of 33.4 µM. For the same compound, the TGI [5] was 28 µM and the TGI [6] was 40.7 µM.
In the case of `COc1ccc(N2C=Nn3c(nc4sc(C)c(C)c4c3=O)C2)cc1`, the TGI [7] is reported as > 100 µM, the TGI [1] is reported as > 100 µM and the TGI [2] is reported as > 100 µM. The TGI [9] was > 100 µM, the TGI [3] was > 100 µM and the TGI [4] was > 100 µM. For the same compound, the TGI [10] was > 100 µM, the TGI [5] was > 100 µM and the TGI [6] was > 100 µM.
`COc1ccc2c3c1OC1CC(O)C=CC31CCN(C)C2` (configuration not stated) was tested, and the TGI [8] was > 150 µM, the TGI [2] was > 150 µM and the TGI [3] was > 150 µM. The TGI [4] was > 150 µM, the TGI [5] was > 91.8 µM and the TGI [6] was > 150 µM.
With `CC(C)Oc1c(-c2c(OC(C)C)c(=O)c2=O)c(=O)c1=O` the TGI [7] was > 38.6 µM, the TGI [1] was > 100 µM and the TGI [2] was > 100 µM. The TGI [9] was > 100 µM, the TGI [3] was > 61.5 µM and the TGI [4] was > 100 µM. The TGI [10] was > 57.2 µM, the TGI [5] was > 75.9 µM and the TGI [6] was > 100 µM.
For `CCOC(=O)/C(=C\NCC(O)c1ccccc1)c1nc2ccccc2[nH]1` (configuration not stated), the TGI [7] was 82.7 µM, the TGI [8] was > 100 µM and the TGI [1] was 42.7 µM. It also gave a TGI [2] of 74.3 µM, a TGI [9] of 93.5 µM and a TGI [3] of 34.8 µM. The TGI [4] was 64.1 µM, the TGI [5] was 40.5 µM and the TGI [6] was 42.5 µM.
Work on `CC(C)/C(Cl)=N/OC(=O)Nc1ccc(F)c(Cl)c1` yielded a TGI [7] of 14.8 µM, a TGI [8] of 9.11 µM and a TGI [2] of 4.16 µM. It also gave a TGI [9] of 10.6 µM, a TGI [3] of 27.3 µM and a TGI [4] of 33.3 µM. It also gave a TGI [10] of 30.7 µM, a TGI [5] of 40.3 µM and a TGI [6] of 26.5 µM.
With `COc1cc(OC)c2c(O)cc(CC(C)O)cc2c1` (configuration not stated) the TGI [8] was > 100 µM, the TGI [1] was > 100 µM and the TGI [2] was > 100 µM. For the same compound, the TGI [9] was > 100 µM, the TGI [3] was > 100 µM and the TGI [4] was > 100 µM. The TGI [5] was > 100 µM and the TGI [6] was > 100 µM.
`COC1C(O)CC(OC2C(C)OC(Oc3cc(O)c4c(O)c5c(cc4c3)C[C@@H]([C@H](OC)C(=O)[C@@H](O)[C@@H](C)O)[C@H](OC3CC(OC4CC(OC6CC(C)(O)C(O)C(C)O6)C(O)C(C)O4)C(O)C(C)O3)C5=O)CC2OC(C)=O)OC1C` (some centres not stated) was tested, and the TGI [7] was > 100 µM, the TGI [8] was > 100 µM and the TGI [1] was > 100 µM. The TGI [2] was > 100 µM, the TGI [3] was > 100 µM and the TGI [4] was > 100 µM. The TGI [10] was > 100 µM and the TGI [5] was > 100 µM.
`CCc1cccc(C(C)C)c1NC(=O)C(=O)C(Cc1nc2ccccc2[nH]c1=O)C(=O)OC` (configuration not stated) was tested, and the TGI [8] was > 100 µM, the TGI [1] was > 100 µM and the TGI [2] was > 100 µM. For the same compound, the TGI [9] was > 100 µM, the TGI [3] was > 100 µM and the TGI [4] was > 100 µM. The TGI [5] was > 100 µM and the TGI [6] was > 100 µM.
In the case of `Cc1cn(C2CC(n3cc(Cn4cc(F)c(=O)[nH]c4=O)nn3)C(CO)O2)c(=O)[nH]c1=O` (configuration not stated), the TGI [7] is reported as > 100 µM, the TGI [8] is reported as > 100 µM and the TGI [2] is reported as > 100 µM. The TGI [9] was > 100 µM, the TGI [3] was > 100 µM and the TGI [4] was > 100 µM. The TGI [10] was > 100 µM, the TGI [5] was > 100 µM and the TGI [6] was > 100 µM.
`Cc1ccc(N=Nc2c(C)nn(C(=O)CC(=O)Nc3ccccc3)c2C)cc1C` was tested, and the TGI [7] was > 100 µM, the TGI [8] was > 100 µM and the TGI [1] was > 100 µM. For the same compound, the TGI [2] was > 100 µM, the TGI [9] was > 100 µM and the TGI [3] was > 100 µM. For the same compound, the TGI [4] was > 100 µM, the TGI [10] was > 100 µM and the TGI [5] was > 100 µM.
With `Cc1ccc2[nH]cc(-c3nc(-c4c[nH]c5ncccc45)cs3)c2c1` the GI50 [8] was > 100 µM, the TGI [8] was > 100 µM and the GI50 [2] was > 100 µM. The TGI [2] was > 100 µM, the GI50 [9] was > 100 µM and the TGI [9] was > 100 µM. For the same compound, the GI50 [3] was > 100 µM, the TGI [3] was > 100 µM and the GI50 [4] was 3.11 µM. The TGI [4] was > 100 µM, the GI50 [10] was > 100 µM and the TGI [10] was > 100 µM. For the same compound, the GI50 [5] was > 100 µM, the TGI [5] was > 100 µM and the GI50 [6] was > 100 µM. The TGI [6] was > 100 µM.
`COC(=O)Cc1ccc2c(c1)Sc1ccc(CC(=O)OC)cc1N2C` was tested, and the TGI [8] was > 100 µM, the TGI [1] was > 79.1 µM and the TGI [2] was > 92.6 µM. The TGI [9] was > 100 µM, the TGI [3] was > 100 µM and the TGI [4] was 99.6 µM. For the same compound, the TGI [10] was > 100 µM, the TGI [5] was > 100 µM and the TGI [6] was > 93 µM.
In the case of `C=CCC(C)C12CCNC(Cc3ccc(O)cc31)C2C` (configuration not stated), the TGI [1] is reported as > 100 µM, the TGI [2] is reported as > 100 µM and the TGI [9] is reported as > 100 µM. For the same compound, the TGI [3] was > 100 µM, the TGI [4] was > 100 µM and the TGI [10] was > 100 µM. The TGI [5] was > 100 µM and the TGI [6] was > 100 µM.
With `Cc1nc2ccc(S(=O)(=O)Nc3ccc(Cl)cc3)cc2c(=O)n1NC(=O)CNc1ccc(Cl)cc1` the TGI [7] was > 100 µM, the TGI [8] was > 100 µM and the TGI [1] was > 100 µM. The TGI [2] was > 100 µM, the TGI [9] was > 100 µM and the TGI [3] was > 100 µM. The TGI [10] was > 100 µM, the TGI [5] was > 100 µM and the TGI [6] was > 100 µM.
